Measurements from ChEMBL document CHEMBL1201862, “PubChem BioAssay data set” (2004).
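Five concentrations, 48 hours, 96-well plates. GI50 = concentration required for 50% inhibition of growth.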 Active and inactive are the calls of the source. No stated cut-off is given here; in the data, active = GI50 up to about 1.1 µM and inactive = higher.

Legend:
Experiment in all cases: inhibition of tumour cell growth, NCI panel, 48 h
A498 = test system: A498
A549 = test system: A549
ACHN = test system: ACHN
CCRF-CEM = test system: CCRF-CEM
DMS-114 = test system: DMS-114
DMS-273 = test system: DMS-273
EKVX = test system: EKVX
HCT-116 = test system: HCT-116
HL-60 = test system: HL-60
HOP-62 = test system: HOP-62
HOP-92 = test system: HOP-92
HT-29 = test system: HT-29
IGROV-1 = test system: IGROV-1
KM12 = test system: KM12
M14 = test system: M14
M19-MEL = test system: M19-MEL
MOLT-4 = test system: MOLT-4
NCI-H23 = test system: NCI-H23
NCI-H460 = test system: NCI-H460
NCI-H522 = test system: NCI-H522
OVCAR-5 = test system: OVCAR-5
OVCAR-8 = test system: OVCAR-8
RXF 393 = test system: RXF 393
RXF 631 = test system: RXF 631
SF-268 = test system: SF-268
SF-295 = test system: SF-295
SK-MEL-28 = test system: SK-MEL-28
SK-OV-3 = test system: SK-OV-3
SNB-19 = test system: SNB-19
SNB-78 = test system: SNB-78
SR = test system: SR
TK-10 = test system: TK-10
U-251 = test system: U-251
UACC-257 = test system: UACC-257
UACC-62 = test system: UACC-62
UO-31 = test system: UO-31
786-0 = test system: 786-0
CAKI-1 = test system: CAKI-1
COLO 205 = test system: COLO 205
HCT-15 = test system: HCT-15
K562 = test system: K562
KM-20L2 = test system: KM-20L2
LOX IMVI = test system: LOX IMVI
LXFL 529 = test system: LXFL 529
Malme-3M = test system: Malme-3M
NCI-H226 = test system: NCI-H226
OVCAR-3 = test system: OVCAR-3
OVCAR-4 = test system: OVCAR-4
RPMI-8226 = test system: RPMI-8226
SF-539 = test system: SF-539
SK-MEL-2 = test system: SK-MEL-2
SN12C = test system: SN12C
SW-620 = test system: SW-620
XF498 = test system: XF498
BT-549 = test system: BT-549
DLD-1 = test system: DLD-1
DU-145 = test system: DU-145
HCC 2998 = test system: HCC 2998
HOP-18 = test system: HOP-18
Hs-578T = test system: Hs-578T
MCF7 = test system: MCF7
MDA-MB-231 = test system: MDA-MB-231
MDA-MB-435 = test system: MDA-MB-435
MDA-N = test system: MDA-N
PC-3 = test system: PC-3
SK-MEL-5 = test system: SK-MEL-5
SNB-75 = test system: SNB-75
T47D = test system: T47D

In the case of CCC1=CC2CC(C(=O)OC)C1(N(C)C)C2=O (stereo not drawn), the GI50 (A498) is reported as > 100 µM (inactive), the GI50 (A549) is reported as > 100 µM (inactive) and the GI50 (ACHN) is reported as > 100 µM (inactive). The GI50 (CCRF-CEM) was > 100 µM (inactive), the GI50 (DMS-114) was > 100 µM (inactive) and the GI50 (DMS-273) was > 100 µM (inactive). For the same compound, the GI50 (EKVX) was > 100 µM (inactive), the GI50 (HCT-116) was > 100 µM (inactive) and the GI50 (HL-60) was > 100 µM (inactive). For the same compound, the GI50 (HOP-62) was > 100 µM (inactive), the GI50 (HOP-92) was > 100 µM (inactive) and the GI50 (HT-29) was > 100 µM (inactive). For the same compound, the GI50 (IGROV-1) was > 100 µM (inactive), the GI50 (KM12) was > 100 µM (inactive) and the GI50 (M14) was > 100 µM (inactive). The GI50 (M19-MEL) was > 100 µM (inactive), the GI50 (MOLT-4) was > 100 µM (inactive) and the GI50 (NCI-H23) was > 100 µM (inactive). For the same compound, the GI50 (NCI-H460) was > 100 µM (inactive), the GI50 (NCI-H522) was > 100 µM (inactive) and the GI50 (OVCAR-5) was > 100 µM (inactive). The GI50 (OVCAR-8) was > 100 µM (inactive), the GI50 (RXF 393) was > 100 µM (inactive) and the GI50 (RXF 631) was > 100 µM (inactive). For the same compound, the GI50 (SF-268) was > 100 µM (inactive), the GI50 (SF-295) was > 100 µM (inactive) and the GI50 (SK-MEL-28) was > 100 µM (inactive). The GI50 (SK-OV-3) was > 100 µM (inactive), the GI50 (SNB-19) was > 100 µM (inactive) and the GI50 (SNB-78) was > 100 µM (inactive). The GI50 (SR) was > 100 µM (inactive), the GI50 (TK-10) was > 100 µM (inactive) and the GI50 (U-251) was > 100 µM (inactive). The GI50 (UACC-257) was > 100 µM (inactive), the GI50 (UACC-62) was > 100 µM (inactive) and the GI50 (UO-31) was > 100 µM (inactive).

CCn1c2ccccc2c(=O)c2c(OC)ccc(OC)c21 was tested, and the GI50 (786-0) was 51.3 µM (inactive), the GI50 (A498) was 25.4 µM (inactive) and the GI50 (A549) was 55.6 µM (inactive). For the same compound, the GI50 (ACHN) was 35.9 µM (inactive), the GI50 (CAKI-1) was 22.9 µM (inactive) and the GI50 (CCRF-CEM) was 48 µM (inactive). The GI50 (COLO 205) was 55.7 µM (inactive), the GI50 (DMS-273) was 30.8 µM (inactive) and the GI50 (EKVX) was > 66.5 µM (inactive). For the same compound, the GI50 (HCT-116) was 51.1 µM (inactive), the GI50 (HCT-15) was 45.9 µM and the GI50 (HL-60) was 29.6 µM (inactive). For the same compound, the GI50 (HOP-62) was 54.3 µM (inactive), the GI50 (HOP-92) was 39 µM (inactive) and the GI50 (HT-29) was 64.3 µM (inactive). For the same compound, the GI50 (IGROV-1) was 46.9 µM (inactive), the GI50 (K562) was 37.2 µM (inactive) and the GI50 (KM-20L2) was 92.5 µM (inactive). For the same compound, the GI50 (KM12) was 79.6 µM (inactive), the GI50 (LOX IMVI) was 36.1 µM (inactive) and the GI50 (LXFL 529) was 34 µM (inactive). For the same compound, the GI50 (M14) was 79.8 µM (inactive), the GI50 (M19-MEL) was 74 µM (inactive) and the GI50 (MOLT-4) was 42.5 µM (inactive). For the same compound, the GI50 (Malme-3M) was 68.5 µM (inactive), the GI50 (NCI-H226) was 32.2 µM (inactive) and the GI50 (NCI-H23) was > 83.8 µM (inactive). For the same compound, the GI50 (NCI-H460) was 47.6 µM (inactive), the GI50 (NCI-H522) was 20.6 µM (inactive) and the GI50 (OVCAR-3) was 34 µM (inactive). For the same compound, the GI50 (OVCAR-4) was 31.3 µM (inactive), the GI50 (OVCAR-5) was > 61.7 µM (inactive) and the GI50 (OVCAR-8) was 56.8 µM (inactive). The GI50 (RPMI-8226) was 35.5 µM (inactive), the GI50 (RXF 393) was 32.5 µM (inactive) and the GI50 (RXF 631) was 49.1 µM (inactive). The GI50 (SF-268) was 83.9 µM (inactive), the GI50 (SF-295) was 53.8 µM (inactive) and the GI50 (SF-539) was 68.1 µM (inactive). For the same compound, the GI50 (SK-MEL-2) was 75.5 µM (inactive), the GI50 (SK-OV-3) was 64.9 µM (inactive) and the GI50 (SN12C) was 42.5 µM (inactive). For the same compound, the GI50 (SNB-19) was 49.9 µM (inactive), the GI50 (SR) was 34.9 µM (inactive) and the GI50 (SW-620) was 32.8 µM (inactive). For the same compound, the GI50 (U-251) was 64.6 µM (inactive), the GI50 (UACC-257) was 41.4 µM (inactive) and the GI50 (UACC-62) was 43.6 µM (inactive). For the same compound, the GI50 (UO-31) was 25.4 µM (inactive) and the GI50 (XF498) was 34.1 µM (inactive).

With COc1cc2c(cc1OC)[C@H]1CN3CCC[C@H]3C=C1c1ccc(OC)c(O)c1-2 the GI50 (786-0) was 0.000728 µM (active), the GI50 (A498) was < 0.0001 µM (active) and the GI50 (A549) was 0.000598 µM (active). For the same compound, the GI50 (ACHN) was 0.000566 µM (active), the GI50 (BT-549) was 0.0195 µM (active) and the GI50 (CAKI-1) was < 0.0001 µM (active). The GI50 (CCRF-CEM) was 0.000422 µM (active), the GI50 (COLO 205) was 0.0006 µM (active) and the GI50 (DLD-1) was < 0.0001 µM (active). For the same compound, the GI50 (DMS-114) was < 0.0001 µM (active), the GI50 (DMS-273) was < 0.0001 µM (active) and the GI50 (DU-145) was 0.00342 µM (active). The GI50 (EKVX) was 0.000883 µM (active), the GI50 (HCC 2998) was 0.0029 µM (active) and the GI50 (HCT-116) was 0.000452 µM (active). For the same compound, the GI50 (HCT-15) was 0.000549 µM, the GI50 (HL-60) was 0.000487 µM (active) and the GI50 (HOP-18) was < 0.0001 µM (active). For the same compound, the GI50 (HOP-62) was < 0.0001 µM (active), the GI50 (HOP-92) was < 0.0001 µM (active) and the GI50 (HT-29) was 0.000656 µM (active). For the same compound, the GI50 (Hs-578T) was 0.00192 µM (active), the GI50 (IGROV-1) was 0.000661 µM (active) and the GI50 (K562) was 0.000512 µM (active). For the same compound, the GI50 (KM-20L2) was < 0.0001 µM (active), the GI50 (KM12) was 0.000519 µM (active) and the GI50 (LOX IMVI) was 0.000329 µM (active). For the same compound, the GI50 (LXFL 529) was < 0.0001 µM (active), the GI50 (M14) was 0.00048 µM (active) and the GI50 (M19-MEL) was < 0.0001 µM (active). For the same compound, the GI50 (MCF7) was 0.00404 µM (active), the GI50 (MDA-MB-231) was 0.00378 µM (active) and the GI50 (MDA-MB-435) was 0.00264 µM (active). For the same compound, the GI50 (MDA-N) was 0.00346 µM (active), the GI50 (MOLT-4) was 0.000486 µM (active) and the GI50 (Malme-3M) was 0.000608 µM (active). For the same compound, the GI50 (NCI-H226) was 0.000736 µM (active), the GI50 (NCI-H23) was 0.000553 µM (active) and the GI50 (NCI-H460) was 0.000558 µM (active). The GI50 (NCI-H522) was 0.000487 µM (active), the GI50 (OVCAR-3) was < 0.0001 µM (active) and the GI50 (OVCAR-4) was 0.00031 µM (active). The GI50 (OVCAR-5) was 0.000653 µM (active), the GI50 (OVCAR-8) was 0.000557 µM (active) and the GI50 (PC-3) was 0.00359 µM (active). For the same compound, the GI50 (RPMI-8226) was 0.000577 µM (active), the GI50 (RXF 393) was 0.00667 µM (active) and the GI50 (SF-268) was 0.000819 µM (active). For the same compound, the GI50 (SF-295) was < 0.0001 µM (active), the GI50 (SF-539) was 0.000711 µM (active) and the GI50 (SK-MEL-28) was 0.0006 µM (active). For the same compound, the GI50 (SK-MEL-2) was 0.000505 µM (active), the GI50 (SK-MEL-5) was 0.000539 µM (active) and the GI50 (SK-OV-3) was < 0.0001 µM (active). For the same compound, the GI50 (SN12C) was 0.000531 µM (active), the GI50 (SNB-19) was < 0.0001 µM (active) and the GI50 (SNB-75) was 0.000566 µM (active). For the same compound, the GI50 (SNB-78) was < 0.0001 µM (active), the GI50 (SR) was 0.00059 µM (active) and the GI50 (SW-620) was 0.000499 µM (active). The GI50 (T47D) was 0.00337 µM (active), the GI50 (TK-10) was 0.000998 µM (active) and the GI50 (U-251) was 0.000605 µM (active). The GI50 (UACC-257) was 0.000681 µM (active), the GI50 (UACC-62) was < 0.0001 µM (active) and the GI50 (UO-31) was 0.000959 µM (active). For the same compound, the GI50 (XF498) was < 0.0001 µM (active).
